Experimental data taken from publication PMC4061482 (Frontiers in Oncology, 2014).

System: NCI-H460 cells
Test: 17β-estradiol ELISA after estrone stimulation
Assay type: cell-based
Conditions: Homo sapiens, 28 nM estrone, 24 h, read-out: Inhibition of 17β-estradiol formation
Procedure: Cells were seeded into 96-well plates in hormone-deprived media at appropriate seeding densities [10,000–50,000 cells per well for all lines except HCC1500 (100,000 cells per well; 11β-PGF2α ELISA)] to reach approximately 70% confluency at the time of sampling and were left to settle for 24 h at 37°C and 5% CO2. Inhibitors were added to the plates at single or multiple concentrations for 1 h prior to administration of equimolar (28 nM) concentrations of PGD2 (11β-PGF2α ELISA), androstenedione (testosterone ELISA), or estrone (17β-estradiol ELISA). The plates were returned to the incubator for a further 24 h before cell supernatant was removed for analysis of 11β-PGF2α, testosterone, or 17β-estradiol by ELISA as per manufacturer’s instructions (11β-PGF2α and testosterone ELISA, Cayman Chemical Company; 17β-estradiol ELISA, Oxford Biomedical Research), and cells were fixed for sulforhodamine B analysis as described below. Each ELISA plate was read at a wavelength of 405 nm (11β-PGF2α and testosterone) or 650 nM (17β-estradiol) on a SpectraMax M2 microplate reader (Molecular Devices) and quantitated against a standard curve generated in hormone-deprived culture media. Cross-reactivity to PGD2, androstenedione, or estrone was accounted for by adding these to cell-free wells of each ELISA plate. […]

Molecule `CC1CCCCN1S(=O)(=O)c1ccc(N2CCCC2=O)cc1` (stereo not shown) [SN33638] has an inhibition at 10 µM of 39.6%.
